Reference: PMC9099121, “Population pharmacokinetic and exposure‐response analyses from ALTA‐1L: Model‐based analyses supporting the brigatinib dose in ALK‐positive NSCLC” (Clinical and Translational Science, 2022)

Columns and labels:
[1] = Population PK model (Bayesian re-estimation), brigatinib arm of ALTA-1L (first-line); format: in vivo, human; conditions: geometric mean (5th and 95th percentiles)
Experimental: The population PK and exposure‐response analyses evaluated data from the brigatinib arm (180 mg q.d. with a 7‐day lead‐in at 90 mg q.d.) of the ALTA‐1L trial (second interim analysis, data cutoff date: June 28, 2019).[8] […] Blood samples for measurement of brigatinib plasma concentrations were obtained predose on day 1 of cycle one (28 day/cycle); predose and 1, 4, and 6 to 8 h postdose on day 1 of cycle two; and predose and any time between 1 and 8 h postdose on day 1 of cycles three, four, and five. Plasma samples were analyzed for brigatinib concentrations using a validated liquid chromatography/tandem mass spectrometry assay with a lower limit of quantification of 5 ng/mL. Efficacy assessments were based on computed tomography or magnetic resonance imaging performed at screening, every 8 weeks through cycle 14, and then every 12 weeks through treatment discontinuation.[8] Safety data were collected as they were reported.
The previously developed population PK model[11] was used for population PK analyses of ALTA‐1L data. The previous analysis provided a robust and comprehensive characterization of brigatinib PK and sources of variability. Importantly, the previous analysis included 202 patients with ALK+ NSCLC that progressed on other ALK TKIs, representing a similar patient population to patients receiving first‐line brigatinib in ALTA‐1L. These considerations supported a Bayesian re‐estimation approach for deriving individual brigatinib PK parameters in ALTA‐1L using the previously reported model, and the model was applied without modification. In brief, the population PK model described brigatinib PK using a three‐compartment model with linear distribution and elimination kinetics and first‐order absorption preceded by a set of transit compartments.[11] The model included albumin concentration as a covariate on apparent oral clearance (CL/F). Bayesian re‐estimation was performed by setting initial model conditions to values of fixed effects and random effect variances previously estimated,[11] allowing for estimation of individual PK parameters based on the PK observations in the ALTA‐1L dataset.
Diagnostic plots were created to compare brigatinib PK in patients in ALTA‐1L (first‐line setting) and ALTA (second‐line setting). […] In exploratory analyses, relationships between covariates of interest and model‐based exposure estimates were evaluated using linear regression models with each covariate as a predictor.

[2] = tested on: advanced ALK+ NSCLC that progressed on crizotinib; conditions: ALTA, cited from earlier work
[3] = parameters: method as in earlier work; conditions: after administration of 180 mg q.d.; cited from earlier work
[4] = 180 mg q.d. with 7-day lead-in at 90 mg q.d.
[5] = patients with measurable baseline brain metastases

Q: With `COc1cc(N2CCC(N3CCN(C)CC3)CC2)ccc1Nc1ncc(Cl)c(Nc2ccccc2P(C)(C)=O)n1` [brigatinib] as the molecule, how does the “Albumin covariate effect on CL/F” value ([1]; ALTA-1L n = 123) read?
A: Its value is 1.03 (0.874, 1.13).

Q: And the CL/F ([1]; ALTA-1L n = 123)?
A: The CL/F was 8.45 (4.04, 17.8) L/h.

Q: What about the Mean transit time ([1]; ALTA-1L n = 123) of the same molecule?
A: Its Mean transit time is 1.01 (0.538, 2.36) h.

Q: What about the Q2/F ([1]; ALTA-1L n = 123) of the same molecule?
A: Its Q2/F is 12.6 (12.6, 12.6) L/h.

Q: And the Q3/F ([1]; ALTA-1L n = 123)?
A: The Q3/F was 2.67 (2.67, 2.67) L/h.

Q: What about the V1/F ([1]; ALTA-1L n = 123) of the same molecule?
A: The V1/F was 160 (69.0, 302) L.

Q: And the V2/F ([1]; ALTA-1L n = 123)?
A: The V2/F was 118 (46.5, 283) L.

Q: What about the V3/F ([1]; ALTA-1L n = 123) of the same molecule?
A: Its V3/F is 78.5 (78.5, 78.5) L.

Q: And the AUC ([1]; human, plasma, oral, maintenance dose 180 mg q.d., ALTA-1L, read-out: Daily steady-state post hoc AUC)?
A: The AUC was 21300 ng·h/mL.

Q: And the “IRC-assessed confirmed objective response rate (ORR)” value [2, 4]?
A: Its value is 56%.

Q: What about the “Median IRC-assessed progression-free survival (PFS)” value [2, 4] of the same molecule?
A: Its value is 16.7 months.

Q: What about the “IRC-assessed intracranial ORR (iORR)” value [2, 5] of the same molecule?
A: Its value is 67%.

Q: And the “Median duration of (intracranial) response” value [2, 5]?
A: The value was 16.6 months.

Q: What about the “Mean plasma elimination half-life” value [3] of the same molecule?
A: Its value is 25 h.
